# Laboratory results reported in PubChem BioAssay AID1963828 (Molecular Pharmacology Branch, DTP, NCI, 2024).
# Test system: 991263-137-R1-J2-PDC complex spheroid viability
# Test: Anticancer human tumor 991263-137-R1-J2-PDC patient-derived colon adenocarcinoma cell line growth inhibition [POLQ]
# Conditions: for IC50: curve of first compound; for viability, T/C: stronger effect = lower value
# Method in brief: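 Complex spheroid viability model combining PDC tumour cells with endothelial (HUVEC) and MSC stromal cells. Novobiocin, ART-558 or RP6685 were tested singly and in combination with standard and investigational anticancer drugs. Each was titrated in half-log steps from near clinical Cmax, or from 10 microM where Cmax was unknown.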
# [1] = second compound 0.0316 µM, first compound 0.0316 µM
# [2] = second compound 0.0316 µM, first compound 0.1 µM
# [3] = second compound 0.0316 µM, first compound 0.316 µM
# [4] = second compound 0.0316 µM, first compound 1 µM
# [5] = second compound 0.0316 µM, first compound 3.16 µM
# [6] = second compound 0.0316 µM, first compound 10 µM
# [7] = second compound 0.1 µM, first compound 0.0316 µM
# [8] = second compound 0.1 µM, first compound 0.1 µM
# [9] = second compound 0.1 µM, first compound 0.316 µM
# [10] = second compound 0.1 µM, first compound 1 µM
# [11] = second compound 0.1 µM, first compound 3.16 µM
# [12] = second compound 0.1 µM, first compound 10 µM
# [13] = second compound 0.316 µM, first compound 0.0316 µM
# [14] = second compound 0.316 µM, first compound 0.1 µM
# [15] = second compound 0.316 µM, first compound 0.316 µM
# [16] = second compound 0.316 µM, first compound 1 µM
# [17] = second compound 0.316 µM, first compound 3.16 µM
# [18] = second compound 0.316 µM, first compound 10 µM
# [19] = second compound 1 µM, first compound 0.0316 µM
# [20] = second compound 1 µM, first compound 0.1 µM
# [21] = second compound 1 µM, first compound 0.316 µM
# [22] = second compound 1 µM, first compound 1 µM
# [23] = second compound 1 µM, first compound 3.16 µM
# [24] = second compound 1 µM, first compound 10 µM
# [25] = second compound 3.16 µM, first compound 0.0316 µM
# [26] = second compound 3.16 µM, first compound 0.1 µM
# [27] = second compound 3.16 µM, first compound 0.316 µM
# [28] = second compound 3.16 µM, first compound 1 µM
# [29] = second compound 3.16 µM, first compound 3.16 µM
# [30] = second compound 3.16 µM, first compound 10 µM
# [31] = second compound 10 µM, first compound 0.0316 µM
# [32] = second compound 10 µM, first compound 0.1 µM
# [33] = second compound 10 µM, first compound 0.316 µM
# [34] = second compound 10 µM, first compound 1 µM
# [35] = second compound 10 µM, first compound 3.16 µM
# [36] = second compound 10 µM, first compound 10 µM
# 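Also: spheroids exposed to compounds for 7 days before readout.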
# 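For viability, T/C in this document: 100% = DMSO vehicle control viability.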
smiles,measurement,setting,value
CCc1cc2c(N3CCc4c(cc(Cn5ccnc5)cc4-c4cn(C)nc4C(F)(F)F)C3=O)cc(C)nc2c(OC)n1 + Cc1cccc(N(C)C(=O)C2C(O)CCN2c2nc(C)cc(C(F)(F)F)c2C#N)c1,IC50,second compound 0.0316 µM,> 10 µM
same,IC50,second compound 0.1 µM,> 10 µM
same,IC50,second compound 0.316 µM,> 10 µM
same,IC50,second compound 1 µM,> 10 µM
same,IC50,second compound 3.16 µM,> 10 µM
same,IC50,second compound 10 µM,> 10 µM
same,"viability, T/C",[1],99.4%
same,"viability, T/C",[2],111%
same,"viability, T/C",[3],95.7%
same,"viability, T/C",[4],97.9%
same,"viability, T/C",[5],96.7%
same,"viability, T/C",[6],89.5%
same,"viability, T/C",[7],109%
same,"viability, T/C",[8],107%
same,"viability, T/C",[9],96.2%
same,"viability, T/C",[10],87.9%
same,"viability, T/C",[11],98%
same,"viability, T/C",[12],99.8%
same,"viability, T/C",[13],113%
same,"viability, T/C",[14],93.8%
same,"viability, T/C",[15],101%
same,"viability, T/C",[16],91.4%
same,"viability, T/C",[17],107%
same,"viability, T/C",[18],88.9%
same,"viability, T/C",[19],100%
same,"viability, T/C",[20],101%
same,"viability, T/C",[21],84.5%
same,"viability, T/C",[22],98.3%
same,"viability, T/C",[23],104%
same,"viability, T/C",[24],82%
same,"viability, T/C",[25],101%
same,"viability, T/C",[26],96%
same,"viability, T/C",[27],106%
same,"viability, T/C",[28],111%
same,"viability, T/C",[29],95.3%
same,"viability, T/C",[30],96.7%
same,"viability, T/C",[31],95.7%
same,"viability, T/C",[32],105%
same,"viability, T/C",[33],90.9%
same,"viability, T/C",[34],90.7%
same,"viability, T/C",[35],84.5%
same,"viability, T/C",[36],92.1%
CCc1cc2c(N3CCc4c(cc(Cn5ccnc5)cc4-c4cn(C)nc4C(F)(F)F)C3=O)ccnc2c(OC)n1 + Cc1cccc(N(C)C(=O)C2C(O)CCN2c2nc(C)cc(C(F)(F)F)c2C#N)c1,IC50,second compound 0.0316 µM,> 10 µM
same,IC50,second compound 0.1 µM,> 10 µM
same,IC50,second compound 0.316 µM,> 10 µM
same,IC50,second compound 1 µM,> 10 µM
same,IC50,second compound 3.16 µM,> 10 µM
same,IC50,second compound 10 µM,> 10 µM
same,"viability, T/C",[1],95.3%
same,"viability, T/C",[2],108%
same,"viability, T/C",[3],107%
same,"viability, T/C",[4],87.2%
same,"viability, T/C",[5],82.8%
same,"viability, T/C",[6],91.7%
same,"viability, T/C",[7],103%
same,"viability, T/C",[8],100%
same,"viability, T/C",[9],97.7%
same,"viability, T/C",[10],95.9%
same,"viability, T/C",[11],96.7%
same,"viability, T/C",[12],88.3%
same,"viability, T/C",[13],104%
same,"viability, T/C",[14],96.8%
same,"viability, T/C",[15],93.4%
same,"viability, T/C",[16],95.7%
same,"viability, T/C",[17],100%
same,"viability, T/C",[18],94.4%
same,"viability, T/C",[19],105%
same,"viability, T/C",[20],98.4%
same,"viability, T/C",[21],110%
same,"viability, T/C",[22],96%
same,"viability, T/C",[23],103%
same,"viability, T/C",[24],92%
same,"viability, T/C",[25],106%
same,"viability, T/C",[26],97.5%
same,"viability, T/C",[27],90.4%
same,"viability, T/C",[28],96.2%
same,"viability, T/C",[29],90.3%
same,"viability, T/C",[30],89%
same,"viability, T/C",[31],96.6%
same,"viability, T/C",[32],111%
same,"viability, T/C",[33],97%
same,"viability, T/C",[34],89.9%
same,"viability, T/C",[35],91.4%
same,"viability, T/C",[36],83%
COc1ccc([C@@H](O)c2cc(-c3ncnc4cc(N5CCOCC5)ccc34)c(F)cc2Cl)nn1 + Cc1cccc(N(C)C(=O)C2C(O)CCN2c2nc(C)cc(C(F)(F)F)c2C#N)c1,IC50,second compound 0.0316 µM,2.6 µM
same,IC50,second compound 0.1 µM,5.78 µM
same,IC50,second compound 0.316 µM,5.97 µM
same,IC50,second compound 1 µM,6.2 µM
same,IC50,second compound 3.16 µM,5.68 µM
same,IC50,second compound 10 µM,3.76 µM
same,"viability, T/C",[1],101%
same,"viability, T/C",[2],88.1%
same,"viability, T/C",[3],93.3%
same,"viability, T/C",[4],110%
same,"viability, T/C",[5],40.1%
same,"viability, T/C",[6],27.1%
same,"viability, T/C",[7],116%
same,"viability, T/C",[8],104%
same,"viability, T/C",[9],98.1%
same,"viability, T/C",[10],88%
same,"viability, T/C",[11],76.4%
same,"viability, T/C",[12],29.3%
same,"viability, T/C",[13],103%
same,"viability, T/C",[14],103%
same,"viability, T/C",[15],84.9%
same,"viability, T/C",[16],87.5%
same,"viability, T/C",[17],68.9%
same,"viability, T/C",[18],34.9%
same,"viability, T/C",[19],99.5%
same,"viability, T/C",[20],114%
same,"viability, T/C",[21],75.2%
same,"viability, T/C",[22],89%
same,"viability, T/C",[23],76.3%
same,"viability, T/C",[24],33.1%
same,"viability, T/C",[25],97.5%
same,"viability, T/C",[26],92.8%
same,"viability, T/C",[27],77.9%
same,"viability, T/C",[28],79.5%
same,"viability, T/C",[29],75.5%
same,"viability, T/C",[30],29.4%
same,"viability, T/C",[31],85.3%
same,"viability, T/C",[32],117%
same,"viability, T/C",[33],86%
same,"viability, T/C",[34],90.5%
same,"viability, T/C",[35],53.2%
same,"viability, T/C",[36],30%
O=C(Nc1ccc(O)c(NS(=O)(=O)c2ccc(F)cc2)c1)c1ccc(-c2ccccc2)cc1 + Cc1cccc(N(C)C(=O)C2C(O)CCN2c2nc(C)cc(C(F)(F)F)c2C#N)c1,IC50,second compound 0.0316 µM,> 10 µM
same,IC50,second compound 0.1 µM,> 10 µM
same,IC50,second compound 0.316 µM,> 10 µM
same,IC50,second compound 1 µM,> 10 µM
same,IC50,second compound 3.16 µM,> 10 µM
same,IC50,second compound 10 µM,> 10 µM
same,"viability, T/C",[1],103%
same,"viability, T/C",[2],99.6%
same,"viability, T/C",[3],90.9%
same,"viability, T/C",[4],101%
same,"viability, T/C",[5],87.2%
same,"viability, T/C",[6],92%
same,"viability, T/C",[7],96.8%
same,"viability, T/C",[8],95.7%
same,"viability, T/C",[9],113%
same,"viability, T/C",[10],94.8%
same,"viability, T/C",[11],99%
same,"viability, T/C",[12],91%
same,"viability, T/C",[13],98.3%
same,"viability, T/C",[14],97.5%
same,"viability, T/C",[15],103%
same,"viability, T/C",[16],80.9%
same,"viability, T/C",[17],99.6%
same,"viability, T/C",[18],86.5%
same,"viability, T/C",[19],99.2%
same,"viability, T/C",[20],99%
same,"viability, T/C",[21],106%
same,"viability, T/C",[22],94.2%
same,"viability, T/C",[23],103%
same,"viability, T/C",[24],80.1%
same,"viability, T/C",[25],96.4%
same,"viability, T/C",[26],96.2%
same,"viability, T/C",[27],95.2%
same,"viability, T/C",[28],109%
same,"viability, T/C",[29],105%
same,"viability, T/C",[30],85.8%
same,"viability, T/C",[31],93.7%
same,"viability, T/C",[32],95.9%
same,"viability, T/C",[33],90.5%
same,"viability, T/C",[34],96.8%
same,"viability, T/C",[35],105%
same,"viability, T/C",[36],87.5%
